The source of these data is patent publication US5367077A (priority 1992, dated 1994).

Each structure is given as a SMILES string.

The test has as its target GABAa receptor. Kind of test: GABAa receptor binding assay: displacement of [3H]-Flumazenil (RO15-1788) from rat cortical tissue. The following applies: rat cortical tissue homogenate, 0.5 nM 3H-RO15-1788, 30 min at 4° C., pH 7.4. The protocol: The pharmaceutical utility of compounds of this invention are indicated by the following assay for GABAa receptor activity.
Assays are carried out as described in Thomas and Tallman (J. Bio. Chem. 156: 9838-9842 , J. Neurosci. 3: 433-440, 1983). Rat cortical tissue is dissected and homogenized in 25 volumes (w/v) of 0.05M Tris HCl buffer (pH 7.4 at 4° C.). The tissue homogenate is centrifuged in the cold (4° ) at 20,000×g for 20'. The supernatant is decanted and the pellet is rehomogenized in the same volume of buffer and again centrifuged at 20,000×g. The supernatant is decanted and the pellet is frozen at -20° C. overnight. The pellet is then thawed and rehomogenized in 25 volume (original wt/vol) of buffer and the procedure is carried out twice. The pellet is finally resuspended in 50 volumes (w/vol of 0.05M Tris HCI buffer (pH 7.4 at […]).
Incubations contain 100 μl of tissue homogenate, 100 μl of radioligand 0.5nM (^3 H-RO15-1788 [^3 H-Flumazenil] specific activity 80 Ci/mmol), drug or blocker and buffer to a total volume of 500 μl. Incubations are carried for 30 min at 4° C. then are rapidly filtered through GFB filters to separate free and bound ligand. Filters are washed twice with fresh 0.05M Tris HCI buffer (pH 7.4 at 4° C.) and counted in a liquid scintillation counter. 1.0 μM diazepam is added to some tubes to determine nonspecific binding. Data are collected in triplicate determinations. averaged and % inhibition of total specific binding is calculated. Total Specific Binding=Total-Nonspecific. In some cases, the amounts of unlabeled drugs is varied and total displacement curves of binding are carried out. Data are converted to a form for the calculation of IC50 and Hill Coefficient (nH).
For the compound `Fc1ccccc1-c1cc2c3c([nH]c2cn1)CCN(Cc1ccccc1)C3` [Compound 20, 8-Benzyl-2-(2-fluorophenyl)-5,6,7,9-tetrahydro-5H-pyrido[4,3-b]pyrido[4,3-d]-pyrrole], the IC50 amounted to 130 nM.
Under `COc1cccc(-c2cc3c4c([nH]c3cn2)CCC2(C4)OCCO2)c1` [Compound 18, 2'-(3-Methoxyphenyl)-5',6',7',9'-tetrahydro-spiro[(1,3)dioxolane-2,8'-5H-indolo[3,4-b]pyridine]] stands 120 nM; under `COc1cccc(-c2cc3c4c([nH]c3cn2)CCN(Cc2ccccc2)C4)c1` [Compound 24, 8-Benzyl-2-(3-methoxyphenyl)-5,6,7,9-tetrahydro-5H-pyrido[4,3-b]pyrido[4,3-d]-pyrrole], 240 nM; under `Fc1ccccc1-c1cc2c3c([nH]c2cn1)CCCC3` [Compound 2], 550 nM.
